US8604048B2, “Pyridocarbazole type compounds and applications thereof” (Centre National de la Recherche Scientifique, priority 2009, dated 2013)

Assays:
786-O cells = assay: Cell growth test (MTT), 786-O; format: cell-based; conditions: Homo sapiens, 786-0, MTT test after 48 h, read-out: IC50 (concentration necessary to inhibit 50% of cell growth)
Experimental: (§1) The cell growth tests are carried out in transparent 96-well microplates (Greiner) after having seeded 100 μl/well of a cell solution having 2·10^5 cells/ml to 5·10^5 cells/ml (depending on the cell lines). After incubating for 24 h at 37° C. with 5% CO2, the culture medium is removed and replaced with solutions of the molecule to be tested at various concentrations. The cells are incubated with these molecules for an additional 48 h at 37° C. with 5% CO2. After elimination of the medium, the cells are washed with blank RPMI (Gibco, Invitrogen) then incubated with 3-(4,5-dimethylthiazol-2-yl)-2,5-diphenyltetrazolium bromide or MTT (0.5 mg/ml final concentration) for 4 h at 37° C. with 5% CO2. MTT (Sigma Aldrich) makes it possible to estimate the viability of the cells by measuring the activity of a mitochondrial enzyme. Indeed, in living cells, mitochondrial dehydrogenases are capable of cleaving the tetrazolium ring, thus leading to the formation of formazan crystals that are insoluble in an aqueous medium. These crystals are dissolved with the addition of a solubilizing solution (isopropanol, 10% Triton X100, 0.1 N HCl). After stirring, the absorbance is measured at 570 nm using the FLUOstar OPTIMA microplate reader. […]
(§2) The viability of the cells was evaluated using an MTT test after 48 h of exposure with various concentrations of molecules (from 100 μM to 0.001 μM). […]

recombinant human LIMK1 = biological target: T1, recombinant human LIMK1 (Homo sapiens, UniProt P53667); assay: LIMK1 inhibition reversibility assay (size-exclusion chromatography); format: biochemical; conditions: 2 μM compound, input vs flow-through after size-exclusion chromatography
T1 construct: 6His (N); purchased Millipore 14-656
Experimental: N-terminal 6H s-tagged recombinant human LIMK1 (Millipore #14-656, 62.5 ng) was incubated with […] Compound 1 (or equivalent amount of DMSO) for 10 minutes at 4° C. in a final volume of 100 μL. Size-exclusion chromatography of this mixture was then performed using 1 ml Biospin P-6 column (Biorad, equilibrated in 20 mM MOPS pH=7.0, 1 mM EDTA, 0.01% NP-40, 5% glycerol, 0.1% β-mercaptoethanol, 1 mg·ml^−1 Bovine Serum Albumin). LIMK1 kinase activity in input and flow-through were then assayed by radiometric LIMK1 kinase assay.
LIMK1 inhibition reversibility was assayed in vitro, in the conditions of Example 2, in the presence of 2 μM Compound 1 (H06), prior (‘input’) or after size-exclusion chromatography (‘flow-through’). Error bars represent standard error mean.

[1] = test system: Glu-tubulin signal in HeLa cells; assay: Glu-tubulin dose-effect, immunofluorescence in microplates; format: cell-based, Human; conditions: 2 h, highest concentrations
Experimental: HeLa cells are seeded in black-bottomed black 96-well microplates (Greiner 655086) by distributing 90 μl per well of a cell solution containing 40 000 cells/ml, and incubated at 37° C. with 5% CO2. 24 h later, the cells are incubated with the molecules to be tested for 2 h at 37° C. with 5% CO2. The cells are then permeabilized with warm OPT buffer for 6 minutes at 37° C. then fixed in methanol for 10 minutes at room temperature. The cells are rinsed twice with PBS/0.1% Tween® 20 and incubated with the primary antibodies YL1/2 and L4 (cf. the antibodies from Table III) diluted to 1/4000 in a solution of PBS/0.3% BSA/0.02% NaN3 overnight at 37° C. […] The various fluorescence intensities are measured using the FLUOstar OPTIMA reader. […]
A dose-effect curve measuring the variation of the amount of Glu-tubulin was produced for Compound 1 of the invention. […] The fluorescence intensity was then measured using the microplate reader.
The percentage of the signal measured represents its distance relative to the control of bioactivity (paclitaxel (Taxol®)) and to the control of bioinactivity (DMSO). The EC50 was determined using KaleidaGraph® 3.60 software.

MES-SA DX5 cells = assay: Cell growth test (MTT), MES-SA DX5; format: cell-based; conditions: Homo sapiens; MES-SA DX5 (multi-drug resistant, P-glycoprotein), MTT test after 48 h; read-out: IC50 (concentration necessary to inhibit 50% of cell growth)
Experimental: as §1, §2

T1 sequence (P53667 whole entry): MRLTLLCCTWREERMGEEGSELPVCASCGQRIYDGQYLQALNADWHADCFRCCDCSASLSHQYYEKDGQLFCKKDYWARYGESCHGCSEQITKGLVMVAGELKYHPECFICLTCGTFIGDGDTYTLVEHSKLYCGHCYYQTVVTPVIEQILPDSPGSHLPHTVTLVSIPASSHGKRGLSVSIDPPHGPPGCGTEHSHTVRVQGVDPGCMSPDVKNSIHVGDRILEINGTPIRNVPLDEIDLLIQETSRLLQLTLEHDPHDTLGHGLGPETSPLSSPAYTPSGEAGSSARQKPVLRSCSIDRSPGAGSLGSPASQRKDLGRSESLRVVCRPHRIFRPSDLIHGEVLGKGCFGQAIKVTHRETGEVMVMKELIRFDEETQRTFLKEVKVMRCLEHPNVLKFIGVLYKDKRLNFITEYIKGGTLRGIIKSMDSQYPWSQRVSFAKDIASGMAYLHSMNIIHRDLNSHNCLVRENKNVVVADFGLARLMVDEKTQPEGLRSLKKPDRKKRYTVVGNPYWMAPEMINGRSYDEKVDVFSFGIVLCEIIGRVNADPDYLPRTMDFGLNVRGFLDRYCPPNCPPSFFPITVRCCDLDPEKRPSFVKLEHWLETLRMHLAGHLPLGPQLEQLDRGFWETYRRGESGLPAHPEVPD

With `Cc1c2cc[nH]c(=O)c2c(C)c2c1[nH]c1ccc(OC(=O)c3ccccc3)cc12` [Compound 1, 9-benzoyloxy-5,11-dimethyl-2H,6H-pyrido[4,3-b]carbazol-1-one] the IC50 (786-O cells) was 55.1 µM, the “Reversibility of LIMK1 inhibition in vitro” value (recombinant human LIMK1) was “reversible” and the “Increase in the Glu signal relative to paclitaxel” value [1] was “slightly smaller than that of paclitaxel”. The IC50 (MES-SA DX5 cells) was 27.4 µM.
